pEC50: −log10 of the molar value.
Experiments:
HAQ allele hSTING = target: T1, HAQ allele hSTING (Homo sapiens, UniProt Q86WV6, G230A/H232R/R293Q); test: Differential scanning fluorometry (DSF) binding to purified hSTING HAQ allele; conditions: DSF, 1 mg/ml STING AA140-379, ligand 1 mM
T1 construct: DNA encoding amino acids 140-379 (amino acid numbering corresponding to Swiss Prot Q86WV6); 6xHIS (N, cleaved yes); SUMO (N, cleaved yes); made in house; host or cells: Rosetta2 (DE3) E. coli
Experimental: (§1) Cells were grown in lysogeny broth at 37° C. until a […] absorbance of 0.6 was reached. […] Cell pellets were re-suspended on ice in a buffer containing 50 mM Tris hydrochloride (Tris-HCl) pH 7.5, 500 mM sodium chloride (NaCl), 20 mM imidazole, 10% glycerol, 1 mM tris(2-carboxyethyl)phosphine hydrochloride (TCEP) and protease inhibitor tablet (Pierce) (Buffer A). Cells were lysed using an S-450D sonifier (Emmerson industrial) on ice. […] Protein was aliquoted, flash frozen in liquid nitrogen and stored at −80° C. until use.
(§2) The protein is heated in the presence of a dye that binds to and fluoresces in hydrophobic environments. The protein is thermally denatured by heating resulting in increased dye binding to the unfolded protein and fluorescence. The temperature midpoint (Tm) of a proteins denaturation is established by calculating the half maximal value of the denaturation curve. The temperature midpoint of the protein in the presence of a ligand is directly related to the affinity of the ligand for the protein and therefore its ability to stabilize the protein at higher temperatures.
(§3) Samples were placed in hard shell PCR plate (Bio-Rad). The fluorescence as a function of temperature was recorded in a CFX 96 real time PCR machine (Bio-Rad) reading on the HEX channel, excitation 450-490, emission 560-580 nm. The temperature gradient was from 15-80° C. ramping 0.5° C. per 15 seconds and recording every 0.5° C. After subtraction of the background signal from a sample lacking protein and ligand. The midpoint temperature (Tm) was calculated by fitting the curves of the fluorescence as a function of temperature to a Boltzmann sigmoidal function (Graph Pad Prism).

hSTING(REF) = hSTING(REF) (Homo sapiens, UniProt Q86WV6); test: Differential scanning fluorometry (DSF) binding to purified hSTING REF allele; parameters: DNA encoding amino acids 140-379 (amino acid numbering corresponding to Swiss Prot Q86WV6); 6xHIS (N, cleaved yes); SUMO (N, cleaved yes); made in house; host or cells: Rosetta2 (DE3) E. coli; conditions: for hSTING Tm Shift REF: DSF, 1 mg/ml STING AA140-379, ligand 1 mM; for binding relative to OH reference compound, in words: Table 4 comment, REF allele hSTING
Experimental: as §1, §2, §3

hSTING HAQ allele = target: T2, hSTING HAQ allele (Homo sapiens, UniProt Q86WV6, G230A/H232R/R293Q/R71H); test: IRF-3 inducible secreted luciferase reporter in THP1-Dual cells without digitonin; type: cell-based; conditions: for pEC50: without digitonin in THP1 cells (HAQ allele)
T2 construct: a human monocyte cell line containing the hSTING HAQ allele; host or cells: THP1-Dual cells
Experimental: After 30 minutes, cells were washed and fresh RPMI media containing 10% FBS was added, and cells were incubated at 37° C. with 5% CO2 Cell culture supernatants from each sample were collected after overnight incubation, and 10 μL of the cell culture supernatants was added to 50 μL QUANTI-Luc reagent (Invivogen). Type I interferon activation was determined by measuring secreted luciferase levels on a SpectraMax M3 spectrophotometer (Molecular Devices). The EC50 value was determined from the dose-response curve for the 10 concentrations from the serial dilution of the reference compounds and compounds of the invention tested in this assay as listed in Table 5.

hSTING(WT) = hSTING(WT) (Homo sapiens, UniProt Q86WV6, H232R); test: Differential scanning fluorometry (DSF) binding to purified hSTING WT; parameters: DNA encoding amino acids 140-379 (amino acid numbering corresponding to Swiss Prot Q86WV6); 6xHIS (N, cleaved yes); SUMO (N, cleaved yes); made in house; host or cells: Rosetta2 (DE3) E. coli; conditions: DSF, 1 mg/ml STING AA140-379, ligand 1 mM
Experimental: as §1, §2, §3

Chain of hSTING(REF) (Q86WV6 140-379): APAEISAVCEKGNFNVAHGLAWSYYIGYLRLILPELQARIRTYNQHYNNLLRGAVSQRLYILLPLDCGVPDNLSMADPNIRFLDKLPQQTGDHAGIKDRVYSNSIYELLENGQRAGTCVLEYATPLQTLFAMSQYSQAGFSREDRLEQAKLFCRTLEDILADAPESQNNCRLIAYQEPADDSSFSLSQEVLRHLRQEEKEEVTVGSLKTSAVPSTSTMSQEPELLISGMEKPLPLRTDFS
Chain of hSTING(WT) (Q86WV6 140-379 H232R): as the sequence (Q86WV6 140-379) above, with H93R counted along it
T2 sequence (Q86WV6 whole entry R71H/G230A/H232R/R293Q): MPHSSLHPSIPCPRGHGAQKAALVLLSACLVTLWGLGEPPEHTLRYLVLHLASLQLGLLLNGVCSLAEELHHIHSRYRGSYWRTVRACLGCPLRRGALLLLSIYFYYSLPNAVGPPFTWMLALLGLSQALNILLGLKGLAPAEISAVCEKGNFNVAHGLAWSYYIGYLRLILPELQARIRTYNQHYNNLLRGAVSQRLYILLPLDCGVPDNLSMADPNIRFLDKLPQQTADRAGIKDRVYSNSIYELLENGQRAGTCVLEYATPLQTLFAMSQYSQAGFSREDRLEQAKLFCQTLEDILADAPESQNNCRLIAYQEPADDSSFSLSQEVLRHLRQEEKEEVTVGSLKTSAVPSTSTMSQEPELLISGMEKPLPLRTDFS
T1 sequence (Q86WV6 140-379 G230A/H232R/R293Q limits assumed): as the sequence (Q86WV6 140-379) above, with G91A, H93R, R154Q counted along it

| hSTING Tm Shift HAQ (HAQ allele hSTING) [°C] | hSTING Tm Shift REF (hSTING(REF)) [°C] | pEC50 (hSTING HAQ allele) | hSTING Tm Shift WT (hSTING(WT)) [°C] | binding relative to OH reference compound, in words (hSTING(REF)) | activity relative to OH reference compound, in words (hSTING HAQ allele; Table 5 comment, THP1 cells without digitonin) | SMILES |
| --- | --- | --- | --- | --- | --- | --- |
| 14.7 | 8.6 | 4.11 | 10.6 | improved binding | – | CC(C)C(=O)Nc1nc2c(ncn2[C@@H]2O[C@@H]3CO[P@@](=O)(S)O[C@H]4[C@@H](F)[C@H](n5cnc6c(NC(=O)c7ccccc7)ncnc65)O[C@@H]4CO[P@@](=O)(S)O[C@H]3[C@H]2F)c(=O)[nH]1 [Compound 25, N-(9-((2R,3R,3aR,5R,7aR,9R,10R,10aR,12R,14aR)-3,10-difluoro-9-(2-isobutyramido-6-oxo-1,6-dihydro-9H-purin-9-yl)-5,12-dimercapto-5,12-dioxidooctahydro-2H,7H-difuro[3,2-d:3′,2′-j][1,3,7,9]tetraoxa[2,8]diphosphacyclododecin-2-yl)-9H-purin-6-yl)benzamide] |
| 8.9 | 5.4 | < 3.82 | 6.8 | – | – | CC(C)C(=O)Nc1nc2c(ncn2[C@@H]2O[C@@H]3CO[P@](=O)(S)O[C@H]4[C@@H](F)[C@H](n5cnc6c(NC(=O)c7ccccc7)ncnc65)O[C@@H]4CO[P@@](=O)(S)O[C@H]3[C@H]2F)c(=O)[nH]1 [Compound 25a, N-(9-((2R,3R,3aR,5S,7aR,9R,10R,10aR,12R,14aR)-3,10-difluoro-9-(2-isobutyramido-6-oxo-1,6-dihydro-9H-purin-9-yl)-5,12-dimercapto-5,12-dioxidooctahydro-2H,7H-difuro[3,2-d:3′,2′-j][1,3,7,9]tetraoxa[2,8]diphosphacyclododecin-2-yl)-9H-purin-6-yl)benzamide] |
| 18.4 | 10.5 | 4.64 | 13.3 | improved binding | improved activity | CC(C)C(=O)Nc1nc2c(ncn2[C@@H]2O[C@@H]3CO[P@@](=O)(S)O[C@H]4[C@@H](F)[C@H](n5cnc6c(N)ncnc65)O[C@@H]4CO[P@@](=O)(S)O[C@H]3[C@H]2F)c(=O)[nH]1 [Compound 26, N-(9-((2R,3R,3aR,5R,7aR,9R,10R,10aR,12R,14aR)-9-(6-amino-9H-purin-9-yl)-3,10-difluoro-5,12-dimercapto-5,12-dioxidooctahydro-2H,7H-difuro[3,2-d:3′,2′-j][1,3,7,9]tetraoxa[2,8]diphosphacyclododecin-2-yl)-6-oxo-6,9-dihydro-1H-purin-2-yl)isobutyramide] |

Continued, molecule first:

| SMILES | hSTING Tm Shift HAQ (HAQ allele hSTING) [°C] | hSTING Tm Shift REF (hSTING(REF)) [°C] | pEC50 (hSTING HAQ allele) | hSTING Tm Shift WT (hSTING(WT)) [°C] | binding relative to OH reference compound, in words (hSTING(REF)) | activity relative to OH reference compound, in words (hSTING HAQ allele; Table 5 comment, THP1 cells without digitonin) |
| --- | --- | --- | --- | --- | --- | --- |
| Nc1ncnc2c1ncn2[C@@H]1O[C@@H]2CO[P@](=O)(S)O[C@H]3[C@@H](F)[C@H](n4cnc5c(N)ncnc54)O[C@@H]3CO[P@@](=O)(S)O[C@H]2[C@H]1O [Compound 22a, (2R,3R,3aR,5S,7aR,9R,10R,10aS,12R,14aR)-2,9-bis(6-amino-9H-purin-9-yl)-3-fluoro-10-hydroxy-5,12-dimercaptooctahydro-2H,7H-difuro[3,2-d:3′,2′-j][1,3,7,9]tetraoxa[2,8]diphosphacyclododecine 5,12-dioxide] | 11.4 | 4.3 | 4.00 | 6.4 | – | – |
| Nc1nc2c(ncn2[C@@H]2O[C@@H]3CO[P@@](=O)(S)O[C@H]4[C@@H](O)[C@H](n5cnc6c(N)ncnc65)O[C@@H]4CO[P@](=O)(S)O[C@H]3[C@H]2F)c(=O)[nH]1 [Compound 23a, 2-amino-9-((2R,3R,3aR,5S,7aR,9R,10R,10aS,12R,14aR)-9-(6-amino-9H-purin-9-yl)-3-fluoro-10-hydroxy-5,12-dimercapto-5,12-dioxidooctahydro-2H,7H-difuro[3,2-d:3′,2′-j][1,3,7,9]tetraoxa[2,8]diphosphacyclododecin-2-yl)-1,9-dihydro-6H-purin-6-one] | 16.5 | 7.8 | 4.60 | 10.6 | – | – |

From US11040053B2, “Compositions and methods for activating “stimulator of interferon gene”13 dependent signalling” (CHINOOK THERAPEUTICS, INC., priority 2015, dated 2021)
